Measured values published in patent US4309559A, “Sulphonamides useful as pesticides” (FBC Limited, priority 1977, dated 1982).

Columns and labels:
[1] = system: Ryegrass (Lolium perenne); experiment: Soil incorporation (attaclay/sand dust), growth regulatory or herbicidal effects, ryegrass; assay type: in vivo; details: 504 h, soil incorporation 130 ppm, 21 days, 0=no effect, 100=complete kill/suppression, read-out: growth regulatory or herbicidal effect score
Excerpt: (§1) The compounds listed below were each formulated as an attaclay/sand dust and incorporated into John Innes I potting compost at a rate equivalent to 26 parts per million weight/volume of active ingredient to soil and placed in anodised aluminium pans, 19 cm long×9.5 cm wide×5.0 cm deep. This rate is approximately equivalent to a soil surface application of 11.2 kg active ingredient/hectare cultivated to a depth of 5 cm. Seeds of the species listed below were sown in the treated soil, watered and placed in a controlled environment room (22° C.; 65-85% relative humidity; 14 hours per day artificial illumination at 13,000 lux) for 21 days. The plants were then visually assessed for any growth regulatory or herbicidal effects. All differences from an untreated control were scored on a scale from 0-100, where 0 signifies no effect and 100 signifies complete kill.
(§2) The compounds listed below were tested according to the procedure of Examples 56-60 but at 130 parts per million weight/volume of active ingredient to soil. This rate is approximately equivalent to a soil surface application of 56 kg active ingredient per hectare cultivated to a depth of 5 cm.
(§3) The product of Example 95 was tested according to the procedure of Examples 56-60 but at 130 and 26 parts per million weight/volume. The results were as follows:
(§4) N-(2-oxopropyl)-2'-chloro-6'-methyl-methanesulphonanilide, formulated as an attaclay/sand dust, was incorporated in John Innes I potting compost at a rate equivalent to 130 parts per million weight/volume of active ingredient to soil and placed in anodised aluminium pans, 19 cm long×9.5 cm wide×5.0 cm deep. These rates are approximately equivalent to a soil surface application of 56 kg active ingredient per hectare cultivated to a depth of 5 cm. Seeds of Peas, Mustard, Linseed, Maize, Oats and Ryegrass were sown in the treated soil, watered and placed in a controlled environment room (22° C.; 65-85% relative humidity; 14 hours artificial illumination at 13000 lux) for 21 days.
(§5) The plants were then visually assessed for any growth regulatory or herbicidal effects. All differences from an untreated control were scored on a scale from 0-100, where 0 signifies no effect and 100 signifies complete suppression.

[2] = system: Oats (Avena sativa); experiment: Soil incorporation (attaclay/sand dust), growth regulatory or herbicidal effects, oats; assay type: in vivo; details: 504 h, soil incorporation 130 ppm, 21 days, 0=no effect, 100=complete kill/suppression, read-out: growth regulatory or herbicidal effect score
Excerpt: as §1, §2, §3, §4, §5

[3] = system: Maize (Zea mays); experiment: Soil incorporation (attaclay/sand dust), growth regulatory or herbicidal effects, maize; assay type: in vivo; details: 504 h, soil incorporation 130 ppm, 21 days, 0=no effect, 100=complete kill/suppression, read-out: growth regulatory or herbicidal effect score
Excerpt: as §1, §2, §3, §4, §5

[4] = system: Peas (Pisum sativum); experiment: Soil incorporation (attaclay/sand dust), growth regulatory or herbicidal effects, peas; assay type: in vivo; details: Lathyrus oleraceus, 504 h, soil incorporation 130 ppm, 21 days, 0=no effect, 100=complete kill/suppression, read-out: growth regulatory or herbicidal effect score
Excerpt: as §1, §2, §3, §4, §5

[5] = system: Mustard (Sinapis alba); experiment: Soil incorporation (attaclay/sand dust), growth regulatory or herbicidal effects, mustard; assay type: in vivo; details: 504 h, soil incorporation 130 ppm, 21 days, 0=no effect, 100=complete kill/suppression, read-out: growth regulatory or herbicidal effect score
Excerpt: as §1, §2, §3, §4, §5

[6] = system: Linseed (Linum usitatissimum); experiment: Soil incorporation (attaclay/sand dust), growth regulatory or herbicidal effects, linseed; assay type: in vivo; details: 504 h, soil incorporation 130 ppm, 21 days, 0=no effect, 100=complete kill/suppression, read-out: growth regulatory or herbicidal effect score
Excerpt: as §1, §2, §3, §4, §5

[7] = system: Pythium ultimum; experiment: Fungal growth on the surface of soil infected with damping-off disease organism; assay type: in vivo; details: 6 days, 25° C.
Procedure: (§6) A one week old maize meal/sand culture of the damping-off disease organism Pythium ultimum was thoroughly mixed by hand with clean sterile John Innes No. 1 potting compost in the ratio of 3 kg culture to 12 liters of soil. The infected soil was then left for approximately 18 hours before use. Each of the compounds listed below was ground together with a wetting agent, Tween 20 (1% of final volume), until a solution or fine suspension was produced which was then diluted with distilled water to give 160 ml of solution containing 1500, 500, 150 or 50 ppm active ingredient. 15 ml aliquots of this solution were added to 75 g portions of the soil infected with Pythium ultimum which were contained in small plastic cartons, 60 mm diameter×55 mm high. Fifteen cabbage seeds, variety Flower of Spring, were placed in a circular depression in the treated infected soil, recovered, and the whole sealed with a plastic cap. The cartons were then placed in a constant temperature room at 25° C.±1° C. Four replications per treatment were made with one additional treatment where seeds were sown in soil which was chemically treated only, i.e. there was no infection. This latter treatment was included to measure the direct effect of the chemical on the germination of the seed. After six days the cartons were removed from the controlled temperature chamber and assessed for degree of fungal growth on the soil surface and percentage of seedling emergence. The results of both these assessments are expressed in a 0-8 scale as follows:
(§7) One week old maize meal/sand culture of the damping-off disease organism Pythium ultimum was thoroughly mixed by hand with clean sterile John Innes No. 1 potting compost in the ratio of 3 kg culture to 12 liters of soil. This infected soil was then left for approximately 18 hours before use. The compounds listed in the Table below were each ground with the wetting agent Tween 20 (1% of final volume), until a solution or fine suspension was produced, which was then diluted with distilled water to give 160 ml of solution containing 1500 or 500 parts per million (ppm) active ingredient. 15 ml aliquots of this solution were added to 75 g portions of the soil infected with Pythium ultimum which were contained in small plastic cartons, 60 mm diameter×55 mm high.
(§8) Fifteen cabbage seeds, variety Flower of Spring, were placed in a circular depression in the treated infected soil, recovered, and the whole sealed with a plastic cap. The cartons were then placed in a constant temperature room at 25° C.±1° C. Four replications per treatment were made, with one additional treatment where seeds were sown in soil which was chemically treated only, i.e. there was no infection. This latter treatment was included to measure the direct effect of the chemical on the germination of the seed.
(§9) After six days, the cartons were removed from the controlled temperature chamber and assessed for degree of fungal growth on the soil surface and percentage of seedling emergence. The results of both these assessments are expressed in a 0-8 scale as follows:
(§10) N-(2-oxopropyl)-3',4'-dimethyl-methanesulphonanilide was tested at a dose rate of 300 ppm in the test described in Examples 233 and 234. It gave a mycelial control score of 0 and a germination score of 3 whereas the untreated samples gave a score of 0 for both.

[8] = system: Pythium ultimum; experiment: Cabbage seedling emergence in soil infected with Pythium ultimum; assay type: in vivo, Pythium ultimum (on cabbage, variety Flower of Spring); details: 6 days, 25° C.
Procedure: as §6, §7, §8, §9, §10

[9] = 300 ppm, 0-8 scale (Examples 233, 234, 268)

Compound | pest or weed control at 130 µg/mL [1] | plant injury at 130 µg/mL [2] | plant injury at 130 µg/mL [3] | pest or weed control at 130 µg/mL [4] | pest or weed control at 130 µg/mL [5] | pest or weed control at 130 µg/mL [6] | Mycelial Control Score ([7]; 30 ppm, 0-8 scale) | Mycelial Control Score ([7]; 100 ppm, 0-8 scale) | Mycelial Control Score ([7]; 300 ppm, 0-8 scale) | Germination Score ([8]; 30 ppm, 0-8 scale) | Germination Score ([8]; 100 ppm, 0-8 scale) | Germination Score ([8]; 300 ppm, 0-8 scale) | Mycelial Control Score [7, 9] | Germination Score [8, 9]
CC(C)c1ccccc1N(CC#N)S(C)(=O)=O [Example 47] | 50% | 30% | 10% | 10% | 80% | 100% |  |  |  |  |  |  |  | 
CCN(CC)C(=O)CN(c1ccc(Cl)cc1)S(C)(=O)=O [Example 35] | 20% | 20% | 20% | 20% | 100% | 40% |  |  |  |  |  |  |  | 
CCOC(=O)CN(c1cccc(C(F)(F)F)c1)S(C)(=O)=O [Example 17] | 0% | 0% | 0% | 40% | 40% | 90% |  |  |  |  |  |  |  | 
CC(C(=O)O)N(c1ccc(Cl)c(Cl)c1)S(C)(=O)=O (centres unmarked) [Example 4] | 0% | 40% | 70% | 70% | 70% | 90% |  |  |  |  |  |  |  | 
CCOC(=O)CN(c1c(C)cccc1C)S(C)(=O)=O [Example 14] | 30% | 20% | 40% | 30% | 100% | 90% |  |  |  |  |  |  |  | 
CC(=O)CN(c1c(C)cccc1Cl)S(C)(=O)=O [Example 210, N-2-oxopropyl-2'-chloro-6'-methyl-methanesulphonanilide] | 70% | 60% | 5% | 30% | 100% | 80% |  |  |  |  |  |  |  | 
CS(=O)(=O)N(CC#N)c1ccc(Cl)cc1 [Example 45] | 80% | 70% | 30% | 20% | 100% | 90% |  |  |  |  |  |  |  | 
CCN(CC)C(=O)CN(c1c(C)cccc1C)S(C)(=O)=O [Example 36] | 20% | 20% | 20% | 20% | 100% | 40% |  |  |  |  |  |  |  | 
Cc1cccc(C)c1N([C@@H](C)C(=O)O)S(C)(=O)=O [Example 7, N-(2,6-dimethylphenyl)-N-methanesulphonyl alanine] | 0% | 30% | 30% | 20% | 70% | 50% |  |  |  |  |  |  |  | 
CCOC(=O)CN(c1ccc(Cl)cc1)S(C)(=O)=O [Example 12] | 5% | 5% | 0% | 40% | 70% | 80% |  |  |  |  |  |  |  | 
CS(=O)(=O)N(CC#N)c1cccc(C(F)(F)F)c1 [Example 48] | 90% | 80% | 40% | 50% | 100% | 100% |  |  |  |  |  |  |  | 
CCc1ccccc1N(C(C)C(=O)O)S(C)(=O)=O (centres unmarked) [Example 5] | 20% | 30% | 30% | 30% | 50% | 70% |  |  |  |  |  |  |  | 
CCOC(=O)CN(c1ccc(Cl)c(Cl)c1)S(C)(=O)=O [Example 18] | 30% | 0% | 30% | 40% | 40% | 80% |  |  |  |  |  |  |  | 
CCS(=O)(=O)N(c1c(C)cccc1C)C(C)C(=O)O (centres unmarked) [Example 9] | 20% | 20% | 30% | 50% | 70% | 80% | 0 (<20% inhibition) | 0 (<20% inhibition) | 0 (<20% inhibition) | 1 (20-34% inhibition) | 5 (65-74% inhibition) | 5 (65-74% inhibition) |  | 
CC1(CN(c2ccc(Cl)cc2)S(C)(=O)=O)OCCO1 [Example 228, N-[(2-methyl-1,3-dioxolan-2-yl)methyl]-4'-chloro-methanesulphonanilide] |  |  |  |  |  |  |  |  |  |  |  |  | 8 (>94% inhibition) | 0 (<20% inhibition)
